Measurements from patent US20230406912A1, “HUMANISED ANTIBODIES AGAINST PATHOGENIC FUNGI” (priority 2020, published 2023).

Key:
C. auris [1] = conditions: different C. auris strains, literature; cited from earlier work
C. auris [2] = experiment: EUCAST antifungal MIC assay, drug alone and combined with hmAb 2G8; type: cell-based; conditions: drug alone
Procedure: To evaluate the susceptibility of C. auris to caspofungin, amphotericin B and their combination with hmAb 2G8, we followed the EUCAST antifungal MIC method (EUCAST E.DEF. 7.3). Antifungal drugs were purchased from Sigma-Aldrich.
The caspofungin and amphotericin B range concentrations analysed were reported in EUCAST document. Those concentrations were tested alone and in combination with 0.25, 2.5, 25 and 250 μg/ml of humanised antibody.
The plates microdilution and the yeast inoculum were prepared as reported in EUCAST document. The wells with 100 μl of 2X final antifungal drugs concentration in RPMI 2% G medium were inoculated with 100 μl (1-5×10^5 CFU/ml) of yeast suspension of C. auris. The monoclonal antibody was added to the samples of yeast suspension to test the combination drug-antibody. The plates were incubated at 37° C. for 24 and 48 hours and read after incubation at 405 nm. The assays were performed in triplicate.
As reported in EUCAST, echinocandins' MIC50 is the lowest drug concentration giving inhibition of≥50% of that of the drug-free control (dotted line). For amphotericin B, MIC50 is the same as for echinocandins while MIC90 is considered as the lowest concentration giving a growth inhibition of≥90% of that of the drug-free control (dotted bold line). […] At 48 hours (D), amphotericin B alone has its MIC50 and 90 at 1 μg/ml.

C. auris [3] = experiment: Time-kill curve, drug alone and combined with hmAb 2G8; type: cell-based
Description: To support and deepen the data coming from MIC assays, a time-kill curve was elaborated to evaluate how the hmAb 2G8 combined with caspofungin or amphotericin B could improve their basal activity on C. auris.

For `C[C@@H]1[C@H](O)[C@@H](C)/C=C/C=C/C=C/C=C/C=C/C=C/C=C/[C@H](O[C@@H]2O[C@H](C)[C@@H](O)[C@H](N)[C@@H]2O)C[C@@H]2O[C@](O)(C[C@@H](O)C[C@@H](O)[C@H](O)CC[C@@H](O)C[C@@H](O)CC(=O)O[C@H]1C)C[C@H](O)[C@H]2C(=O)O` [amphotericin B], which MIC (C. auris [1]) is on record?
The MIC was at least 2 µg/mL.

And the MIC50 (C. auris [2]; 24 hours)?
Its MIC50 is 0.5 µg/mL.

And the MIC90 (C. auris [2]; 24 hours)?
Its MIC90 is 0.5 µg/mL.

And the MIC50 (C. auris [2]; 48 hours)?
The MIC50 was 1 µg/mL.

What about the MIC90 (C. auris [2]; 48 hours) of the same compound?
Its MIC90 is 1 µg/mL.

And the “log growth decrease (time-kill curve)” value (C. auris [3]; AMB 0.03125 μg/ml, 0 h)?
The value was 0.01 Log.

And the “log growth decrease (time-kill curve)” value (C. auris [3]; AMB 0.03125 μg/ml, 2 h)?
Its value is 0.05 Log.

And the “log growth decrease (time-kill curve)” value (C. auris [3]; AMB 0.03125 μg/ml, 4 h)?
Its value is −0.19 Log.

And the “log growth decrease (time-kill curve)” value (C. auris [3]; AMB 0.03125 μg/ml, 6 h)?
The value was −0.62 Log.

And the “log growth decrease (time-kill curve)” value (C. auris [3]; AMB 0.03125 μg/ml, 8 h)?
Its value is −1.04 Log.

What about the “log growth decrease (time-kill curve)” value (C. auris [3]; AMB 0.03125 μg/ml, 24 h) of the same compound?
Its value is −2.65 Log.

What about the “log growth decrease (time-kill curve)” value (C. auris [3]; AMB 0.03125 μg/ml, 48 h) of the same compound?
Its value is −2.85 Log.

What about the “log growth decrease (time-kill curve)” value (C. auris [3]; AMB 0.0625 μg/ml, 0 h) of the same compound?
The value was 0.00 Log.

And the “log growth decrease (time-kill curve)” value (C. auris [3]; AMB 0.0625 μg/ml, 2 h)?
The value was 0.07 Log.

And the “log growth decrease (time-kill curve)” value (C. auris [3]; AMB 0.0625 μg/ml, 4 h)?
The value was −0.14 Log.

And the “log growth decrease (time-kill curve)” value (C. auris [3]; AMB 0.0625 μg/ml, 6 h)?
The value was −0.59 Log.

What about the “log growth decrease (time-kill curve)” value (C. auris [3]; AMB 0.0625 μg/ml, 8 h) of the same compound?
The value was −0.97 Log.

And the “log growth decrease (time-kill curve)” value (C. auris [3]; AMB 0.0625 μg/ml, 24 h)?
The value was −2.59 Log.

What about the “log growth decrease (time-kill curve)” value (C. auris [3]; AMB 0.0625 μg/ml, 48 h) of the same compound?
Its value is −2.57 Log.

And the “log growth decrease (time-kill curve)” value (C. auris [3]; AMB 0.125 μg/ml, 0 h)?
The value was 0.01 Log.

What about the “log growth decrease (time-kill curve)” value (C. auris [3]; AMB 0.125 μg/ml, 2 h) of the same compound?
Its value is 0.11 Log.

What about the “log growth decrease (time-kill curve)” value (C. auris [3]; AMB 0.125 μg/ml, 4 h) of the same compound?
Its value is −0.07 Log.

What about the “log growth decrease (time-kill curve)” value (C. auris [3]; AMB 0.125 μg/ml, 6 h) of the same compound?
The value was −0.42 Log.

And the “log growth decrease (time-kill curve)” value (C. auris [3]; AMB 0.125 μg/ml, 8 h)?
Its value is −0.80 Log.

And the “log growth decrease (time-kill curve)” value (C. auris [3]; AMB 0.125 μg/ml, 24 h)?
The value was −2.28 Log.

What about the “log growth decrease (time-kill curve)” value (C. auris [3]; AMB 0.125 μg/ml, 48 h) of the same compound?
Its value is −2.44 Log.

What about the “log growth decrease (time-kill curve)” value (C. auris [3]; AMB 0.25 μg/ml, 0 h) of the same compound?
Its value is 0.07 Log.

What about the “log growth decrease (time-kill curve)” value (C. auris [3]; AMB 0.25 μg/ml, 2 h) of the same compound?
The value was 0.10 Log.

What about the “log growth decrease (time-kill curve)” value (C. auris [3]; AMB 0.25 μg/ml, 4 h) of the same compound?
The value was 0.02 Log.

And the “log growth decrease (time-kill curve)” value (C. auris [3]; AMB 0.25 μg/ml, 6 h)?
The value was −0.02 Log.

And the “log growth decrease (time-kill curve)” value (C. auris [3]; AMB 0.25 μg/ml, 8 h)?
The value was 0.02 Log.

And the “log growth decrease (time-kill curve)” value (C. auris [3]; AMB 0.25 μg/ml, 24 h)?
The value was 0.19 Log.

And the “log growth decrease (time-kill curve)” value (C. auris [3]; AMB 0.25 μg/ml, 48 h)?
Its value is −2.13 Log.

And the “log growth decrease (time-kill curve)” value (C. auris [3]; AMB 0.5 μg/ml, 0 h)?
Its value is 0.05 Log.

And the “log growth decrease (time-kill curve)” value (C. auris [3]; AMB 0.5 μg/ml, 2 h)?
The value was 0.21 Log.

And the “log growth decrease (time-kill curve)” value (C. auris [3]; AMB 0.5 μg/ml, 4 h)?
The value was 0.41 Log.

What about the “log growth decrease (time-kill curve)” value (C. auris [3]; AMB 0.5 μg/ml, 6 h) of the same compound?
Its value is 0.86 Log.

What about the “log growth decrease (time-kill curve)” value (C. auris [3]; AMB 0.5 μg/ml, 8 h) of the same compound?
The value was 1.95 Log.

What about the “log growth decrease (time-kill curve)” value (C. auris [3]; AMB 0.5 μg/ml, 24 h) of the same compound?
The value was at least 3 Log.

And the “log growth decrease (time-kill curve)” value (C. auris [3]; AMB 0.5 μg/ml, 48 h)?
The value was at least 3 Log.

And the “log growth decrease (time-kill curve)” value (C. auris [3]; AMB 1 μg/ml, 0 h)?
The value was 0.05 Log.

What about the “log growth decrease (time-kill curve)” value (C. auris [3]; AMB 1 μg/ml, 2 h) of the same compound?
Its value is 1.77 Log.

And the “log growth decrease (time-kill curve)” value (C. auris [3]; AMB 1 μg/ml, 4 h)?
Its value is at least 3 Log.

What about the “log growth decrease (time-kill curve)” value (C. auris [3]; AMB 1 μg/ml, 6 h) of the same compound?
The value was at least 3 Log.

What about the “log growth decrease (time-kill curve)” value (C. auris [3]; AMB 1 μg/ml, 8 h) of the same compound?
Its value is at least 3 Log.

And the “log growth decrease (time-kill curve)” value (C. auris [3]; AMB 1 μg/ml, 24 h)?
Its value is at least 3 Log.

What about the “log growth decrease (time-kill curve)” value (C. auris [3]; AMB 1 μg/ml, 48 h) of the same compound?
Its value is at least 3 Log.

And the “log growth decrease (time-kill curve)” value (C. auris [3]; AMB 2 μg/ml, 0 h)?
The value was 0.05 Log.

What about the “log growth decrease (time-kill curve)” value (C. auris [3]; AMB 2 μg/ml, 2 h) of the same compound?
Its value is at least 3 Log.

What about the “log growth decrease (time-kill curve)” value (C. auris [3]; AMB 2 μg/ml, 4 h) of the same compound?
Its value is at least 3 Log.

What about the “log growth decrease (time-kill curve)” value (C. auris [3]; AMB 2 μg/ml, 6 h) of the same compound?
The value was at least 3 Log.

And the “log growth decrease (time-kill curve)” value (C. auris [3]; AMB 2 μg/ml, 8 h)?
The value was at least 3 Log.

And the “log growth decrease (time-kill curve)” value (C. auris [3]; AMB 2 μg/ml, 24 h)?
Its value is at least 3 Log.

And the “log growth decrease (time-kill curve)” value (C. auris [3]; AMB 2 μg/ml, 48 h)?
The value was at least 3 Log.

And the “log growth decrease (time-kill curve)” value (C. auris [3]; AMB 4 μg/ml, 0 h)?
The value was 0.06 Log.

And the “log growth decrease (time-kill curve)” value (C. auris [3]; AMB 4 μg/ml, 2 h)?
Its value is at least 3 Log.

What about the “log growth decrease (time-kill curve)” value (C. auris [3]; AMB 4 μg/ml, 4 h) of the same compound?
Its value is at least 3 Log.

What about the “log growth decrease (time-kill curve)” value (C. auris [3]; AMB 4 μg/ml, 6 h) of the same compound?
Its value is at least 3 Log.

What about the “log growth decrease (time-kill curve)” value (C. auris [3]; AMB 4 μg/ml, 8 h) of the same compound?
The value was at least 3 Log.

What about the “log growth decrease (time-kill curve)” value (C. auris [3]; AMB 4 μg/ml, 24 h) of the same compound?
Its value is at least 3 Log.

What about the “log growth decrease (time-kill curve)” value (C. auris [3]; AMB 4 μg/ml, 48 h) of the same compound?
Its value is at least 3 Log.

What about the “time at which fungicidal activity is obtained” value (C. auris [3]; time-kill curve, as efficiency starts decreasing) of the same compound?
Its value is 24 h.
